Test results from ChEMBL document CHEMBL5523756, “Molecular Transformers: Adaptive Multitarget Ligands for Esterase-Induced Transition from Analgesics to Anesthetics” (J Med Chem, 2024).
Active and inactive are the calls of the source.

What was measured:
[1] = Toxicity in Sprague-Dawley rat assessed as Q-T interval prolongation at 19 mg/kg administered as continuous infusion followed by maintenance at 3.25 mg/kg/min for 0 to 20 mins, 2.5 mg/kg/min for 20 to 30 mins and 2 mg/kg/min for 30 to 60 mins by electrocardiogram recording; format: organism-based; conditions: in vivo, other, 1 h, route par
[2] = Stability of compound in 0.1M PBS at 1 mg/ml measured upto 360 mins by HPLC analysis; format: physicochemical; conditions: buffer, 6 h
[3] = (§1) Toxicity in Sprague-Dawley rat assessed as effect on respiratory frequency at 19 mg/kg administered as continuous infusion followed by maintenance at 3.25 mg/kg/min for 0 to 20 mins, 2.5 mg/kg/min for 20 to 30 mins and 2 mg/kg/min for 30 to 60 mins and measured every 5 mins for 60 mins by whole-body plethysmography; format: organism-based; conditions: in vivo, other, 1 h, route par
[4] = Drug metabolism in human liver microsomes assessed as propofol release by measuring half life at 1 mg/ml measured upto 360 mins by LC-MS analysis; format: ADME, Microsome; conditions: 6 h
CYP1A2 = target: T1, CYP1A2 (Homo sapiens, UniProt P05177); experiment: Inhibition of CYP1A2 (unknown origin) using phenacetin as substrate at 10 uM relative to control; format: ADME; conditions: probe phenacetin
T1 sequence (P05177 whole entry): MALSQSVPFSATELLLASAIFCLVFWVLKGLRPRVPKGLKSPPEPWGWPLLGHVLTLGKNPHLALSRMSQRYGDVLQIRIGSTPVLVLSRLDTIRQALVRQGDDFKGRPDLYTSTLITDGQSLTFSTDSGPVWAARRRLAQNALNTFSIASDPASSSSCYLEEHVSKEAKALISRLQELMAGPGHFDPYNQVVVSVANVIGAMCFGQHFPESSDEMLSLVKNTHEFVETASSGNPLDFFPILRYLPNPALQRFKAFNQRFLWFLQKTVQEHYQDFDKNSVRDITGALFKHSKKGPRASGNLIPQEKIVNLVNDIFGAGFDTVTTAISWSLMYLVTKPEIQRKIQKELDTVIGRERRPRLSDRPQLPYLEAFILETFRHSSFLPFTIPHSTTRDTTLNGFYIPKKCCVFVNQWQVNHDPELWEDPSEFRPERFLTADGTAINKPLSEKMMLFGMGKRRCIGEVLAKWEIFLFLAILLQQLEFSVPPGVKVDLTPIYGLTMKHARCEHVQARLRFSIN

[5] = Toxicity in ICR mouse assessed as histopathological changes in liver at 1.5 times ED50, iv administered as single dose and measured after 14 days by H and E staining based analysis; format: organism-based; conditions: in vivo, 336 h, time 14 day
[6] = Toxicity in Sprague-Dawley rat assessed as effect on creatinine level at 19 mg/kg administered as continuous infusion followed by maintenance at 3.25 mg/kg/min for 0 to 20 mins, 2.5 mg/kg/min for 20 to 30 mins and 2 mg/kg/min for 30 to 60 mins; format: organism-based; conditions: in vivo, other, 1 h, route par
Mus musculus [7] = experiment: Analgesic effect in ICR mouse model of CFA-induced chronic inflammatory pain assessed as increase in paw withdrawal threshold at 0.07 mmol/kg, ip measured upto 90 mins by Von Frey test; format: functional, organism-based
[8] = Drug metabolism in mouse liver microsomes assessed as propofol release by measuring half life at 1 mg/ml measured upto 360 mins by LC-MS analysis; format: ADME, Microsome; conditions: 6 h
[9] = target: Sodium channel protein type 10 subunit alpha (Homo sapiens, UniProt Q9Y5Y9); experiment: Inhibition of Nav1.8 channel (unknown origin) at resting state at -120 mV conditioning pulse by voltage clamp electrophysiological recording
Chain of Sodium channel protein type 10 subunit alpha (Q9Y5Y9 whole entry): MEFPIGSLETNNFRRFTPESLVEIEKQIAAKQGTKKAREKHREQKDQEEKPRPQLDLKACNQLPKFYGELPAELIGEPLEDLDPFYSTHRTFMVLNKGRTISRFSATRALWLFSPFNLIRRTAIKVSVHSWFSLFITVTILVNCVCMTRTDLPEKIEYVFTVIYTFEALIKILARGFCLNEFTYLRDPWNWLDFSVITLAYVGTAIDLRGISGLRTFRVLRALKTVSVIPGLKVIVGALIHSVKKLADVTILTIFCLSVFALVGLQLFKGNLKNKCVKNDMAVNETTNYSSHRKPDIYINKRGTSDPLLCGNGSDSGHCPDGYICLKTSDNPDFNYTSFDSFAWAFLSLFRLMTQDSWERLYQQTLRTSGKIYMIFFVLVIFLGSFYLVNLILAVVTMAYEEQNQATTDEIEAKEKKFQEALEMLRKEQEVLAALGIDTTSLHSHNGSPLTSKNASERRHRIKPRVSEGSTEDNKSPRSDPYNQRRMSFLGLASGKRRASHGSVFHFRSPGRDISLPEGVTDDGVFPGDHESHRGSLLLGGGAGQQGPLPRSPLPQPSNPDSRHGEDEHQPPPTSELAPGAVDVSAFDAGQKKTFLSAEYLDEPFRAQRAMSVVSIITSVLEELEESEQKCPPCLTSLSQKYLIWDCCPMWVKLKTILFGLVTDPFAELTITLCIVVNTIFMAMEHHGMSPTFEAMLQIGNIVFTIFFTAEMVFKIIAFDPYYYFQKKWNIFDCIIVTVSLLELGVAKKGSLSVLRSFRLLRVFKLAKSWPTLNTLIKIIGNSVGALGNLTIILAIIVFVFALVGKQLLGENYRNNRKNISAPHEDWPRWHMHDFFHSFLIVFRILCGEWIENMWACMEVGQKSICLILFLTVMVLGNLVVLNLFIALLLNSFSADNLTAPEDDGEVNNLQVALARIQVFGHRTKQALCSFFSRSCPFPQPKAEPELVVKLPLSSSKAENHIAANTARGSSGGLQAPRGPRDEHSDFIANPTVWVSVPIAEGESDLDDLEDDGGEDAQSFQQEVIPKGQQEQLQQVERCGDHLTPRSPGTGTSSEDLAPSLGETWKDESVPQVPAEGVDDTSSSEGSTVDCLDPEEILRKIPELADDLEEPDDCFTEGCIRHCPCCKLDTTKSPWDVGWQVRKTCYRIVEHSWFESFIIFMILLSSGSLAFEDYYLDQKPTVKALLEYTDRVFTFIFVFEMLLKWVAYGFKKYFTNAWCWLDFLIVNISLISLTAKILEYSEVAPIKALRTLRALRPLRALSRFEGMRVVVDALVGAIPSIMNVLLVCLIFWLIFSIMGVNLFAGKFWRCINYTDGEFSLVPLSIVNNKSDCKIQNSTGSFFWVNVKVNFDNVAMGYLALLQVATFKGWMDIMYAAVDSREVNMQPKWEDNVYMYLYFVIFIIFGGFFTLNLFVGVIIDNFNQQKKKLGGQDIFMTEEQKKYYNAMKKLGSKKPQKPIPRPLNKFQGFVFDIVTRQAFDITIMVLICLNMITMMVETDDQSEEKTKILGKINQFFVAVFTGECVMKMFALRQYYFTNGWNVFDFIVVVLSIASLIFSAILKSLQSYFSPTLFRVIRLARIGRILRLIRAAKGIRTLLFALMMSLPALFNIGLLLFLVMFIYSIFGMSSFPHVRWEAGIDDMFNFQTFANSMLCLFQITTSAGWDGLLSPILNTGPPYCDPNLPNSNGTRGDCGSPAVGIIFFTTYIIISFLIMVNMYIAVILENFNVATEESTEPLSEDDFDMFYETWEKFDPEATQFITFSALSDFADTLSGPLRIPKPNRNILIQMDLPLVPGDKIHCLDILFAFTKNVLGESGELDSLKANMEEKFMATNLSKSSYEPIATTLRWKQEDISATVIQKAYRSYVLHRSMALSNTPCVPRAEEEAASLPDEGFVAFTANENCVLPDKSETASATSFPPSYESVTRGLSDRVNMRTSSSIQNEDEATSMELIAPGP

Mus musculus [10] = experiment: Antiseizure activity in iv dosed ICR mouse model of PTZ-induced acute seizure assessed as prolongation of latency time before onset of first convulsion preadministered for 1 min followed by PTZ treatment; format: functional, organism-based
[11] = Stability in mouse plasma assessed as half life at 1 mg/ml measured upto 360 mins by HPLC analysis; format: ADME, cell-free
[12] = Toxicity in Sprague-Dawley rat assessed as effect on alpha-HBDH level at 19 mg/kg administered as continuous infusion followed by maintenance at 3.25 mg/kg/min for 0 to 20 mins, 2.5 mg/kg/min for 20 to 30 mins and 2 mg/kg/min for 30 to 60 mins; format: organism-based; conditions: in vivo, other, 1 h, route par
[13] = as §1, with “end expiratory pause” for “respiratory frequency”; format: organism-based; conditions: in vivo, other, 1 h, route par
[14] = Toxicity in Sprague-Dawley rat assessed as effect on AST level at 19 mg/kg administered as continuous infusion followed by maintenance at 3.25 mg/kg/min for 0 to 20 mins, 2.5 mg/kg/min for 20 to 30 mins and 2 mg/kg/min for 30 to 60 mins; format: organism-based; conditions: in vivo, other, 1 h, route par
[15] = Toxicity in Sprague-Dawley rat assessed as histopathological changes in heart at 19 mg/kg administered as continuous infusion followed by maintenance at 3.25 mg/kg/min for 0 to 20 mins, 2.5 mg/kg/min for 20 to 30 mins and 2 mg/kg/min for 30 to 60 mins and measured after 14 days by H and E staining based analysis; format: organism-based; conditions: in vivo, other, 336 h, route par, time 14 day
Mus musculus [16] = experiment: Antiseizure activity in iv dosed ICR mouse model of PTZ-induced acute seizure assessed as mortality rate preadministered for 1 min followed by PTZ treatment and measured for 7 days (reference value: 83.3%); format: functional; conditions: time 7 day
[17] = as §1, with “amount of respiration” for “respiratory frequency”; format: organism-based; conditions: in vivo, other, 1 h, route par
Rattus norvegicus [18] = experiment: Anesthesia recovery in Sprague-Dawley rat assessed as effect on recovery time of righting reflex at 19 mg/kg administered as continuous infusion followed by maintenance at 3.25 mg/kg/min for 0 to 20 mins, 2.5 mg/kg/min for 20 to 30 mins and 2 mg/kg/min for 30 to 60 mins; format: functional, organism-based; conditions: route par
DRG neuron [19] = experiment: Modulation of CFA-induced male ICR mouse DRG neuron excitability assessed as reduction in resting membrane potential at 10 uM by whole cell […] assay; format: functional, cell-based
Rattus norvegicus [20] = experiment: Analgesic activity in Sprague-Dawley rat model of thermal nociception assessed as increase in hind-paw withdrawal latency at 19 mg/kg administered as continuous infusion followed by maintenance at 3.25 mg/kg/min for 0 to 20 mins, 2.5 mg/kg/min for 20 to 30 mins and 2 mg/kg/min for 30 to 60 mins; format: functional, organism-based; conditions: route par, TDE = time-dependent effect
[21] = Toxicity in ICR mouse assessed as effect on biochemical parameters at 1.5 times ED50, iv administered as single dose; format: organism-based; conditions: in vivo
[22] = Drug metabolism in rat liver microsomes assessed as propofol release by measuring half life at 1 mg/ml measured upto 360 mins by LC-MS analysis; format: ADME, Microsome; conditions: 6 h
[23] = Toxicity in Sprague-Dawley rat assessed as change in P-R interval at 19 mg/kg administered as continuous infusion followed by maintenance at 3.25 mg/kg/min for 0 to 20 mins, 2.5 mg/kg/min for 20 to 30 mins and 2 mg/kg/min for 30 to 60 mins and measured between 30 to 50 mins by electrocardiogram recording; format: organism-based; conditions: in vivo, other, time 30-50 min, route par
DRG neuron [24] = experiment: Modulation of CFA-induced male ICR mouse DRG neuron excitability assessed as reduction in action potential's rheobase at 10 uM by whole cell […] assay; format: functional, cell-based
Cytochrome P450 3A4 = Cytochrome P450 3A4 (Homo sapiens, UniProt P08684); experiment: Inhibition of CYP3A4 (unknown origin) using midazolam as substrate at 10 uM; format: ADME
Chain of Cytochrome P450 3A4 (P08684 whole entry): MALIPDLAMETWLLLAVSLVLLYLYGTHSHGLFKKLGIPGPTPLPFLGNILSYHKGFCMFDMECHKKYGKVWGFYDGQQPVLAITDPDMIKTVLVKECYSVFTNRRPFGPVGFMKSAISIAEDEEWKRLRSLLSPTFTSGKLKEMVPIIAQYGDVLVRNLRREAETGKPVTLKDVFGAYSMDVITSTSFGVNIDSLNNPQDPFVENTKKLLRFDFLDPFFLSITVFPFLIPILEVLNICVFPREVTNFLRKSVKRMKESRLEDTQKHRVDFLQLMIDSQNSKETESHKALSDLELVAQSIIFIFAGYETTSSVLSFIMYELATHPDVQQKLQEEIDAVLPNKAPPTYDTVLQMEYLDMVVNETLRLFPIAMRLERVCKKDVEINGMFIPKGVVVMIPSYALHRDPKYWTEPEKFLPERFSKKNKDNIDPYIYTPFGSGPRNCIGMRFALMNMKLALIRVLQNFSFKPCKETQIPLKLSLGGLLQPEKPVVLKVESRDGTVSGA

CCN(CC)CCOC(=O)Oc1c(C(C)C)cccc1C(C)C.Cl
Activity [1]: Non-Toxic | Stability [2]: Stable | Activity [3]: Non-Toxic | t1/2 [4]: 54.63 min | inhibition at 10 µM (CYP1A2): 26.2% | Activity [5]: Non-Toxic | Activity [6]: Non-Toxic | Activity (Mus musculus [7]): Active | t1/2 [8]: 45.98 min | IC50 [9]: > 30 µM | Activity (Mus musculus [10]): Active | half-life at 1 mg/ml [11]: 19.2 min | Activity [12]: Non-Toxic | Activity [13]: Non-Toxic | Activity [14]: Non-Toxic | Activity [15]: Non-Toxic | Activity (Mus musculus [16]): 0% | Activity [17]: Non-Toxic | Activity (Rattus norvegicus [18]): Active | Activity (DRG neuron [19]): inactive | Activity (Rattus norvegicus [20]): Tde | Activity [21]: Non-Toxic | t1/2 [22]: 81.09 min | Activity [23]: Toxic | Activity (DRG neuron [24]): inactive | inhibition (INH) (Cytochrome P450 3A4): Not Active
